Several values for one entry are separate records, joined by “and”; a condition that tells them apart may be missing. Equal values may be shown once. {C11P} = undecylphosphate group; {Acr} = acridine conjugate
How the values were obtained:
[1] = test system: HSV-1; assay: HSV-1 infectivity of medium of infected BHK cells; type: cell-based, Herpes Simplex Virus 1; conditions: oligonucleotide 3.0 μM
[2] = test system: HSV-1; set-up: species or system mice; conditions: mouse, in vivo

Free Anti-HSV: 12-chain oligonucleotide CGTTCCTCCTGU, 5′ undecylphosphate and 3′ acridine modified, complementary to HSV-1 splicing site (5' {C11P}, 3' {Acr}, sugars by position and backbone not given here)
HSV-1 infectious titre n = 7 [1]: 50(±14) × 10^2 CPE50/ml | % Survival [2]: 7.0% | Survived animals/Amount of Animals in a group [2]: 1/10 and 0/10

— patent publication US6359054B1, “Polynucleotide compositions for intramuscular administration” (priority 1994, dated 2002)
